Assay results as given in patent publication US20150031765A1, “TREATMENT OF COGNITIVE IMPAIRMENT” (priority 2011, published 2015).
Counter-ions that a name gives are not always drawn. Each block holds one molecule with its values, some of them ahead of it.

What was measured:
[1] = system: scopolamine induced learning and memory deficit; assay: Morris water maze test, scopolamine induced learning and memory deficit in rats; type: in vivo, Sprague-Dawley male rats; details: for average time to locate the submerged platform: Day 1 of acquisition trials, whole group
Description: The Morris water maze test is a classical cognitive test for evaluation of spatial learning and memory in rodents. […] 60 Sprague-Dawley male rats were used in the present study. The animals were housed in cages in groups of four rats per cage. All rats were fed with food and water ad libitum. The testing apparatus can be described as follows. A circular pool was filled with water (24±1° C.) to the depth of 30 cm. […] Four start positions were at the perimeter of the pool: the first one in the first quadrant, the second one in the second quadrant, the third one in the third quadrant and the last one in the fourth quadrant. The rats were trained to escape from water by swimming to a hidden platform whose location was only identified using visual cues attached to the curtain around the pool. Visual cues had different colors and dimensions and were kept constant during the whole experiment. All rats were trained in the swimming pool for 60 seconds without the platform. […] The training procedure included 4 trials per day with 4 different and randomized starting positions. In each trial, the time of rat to reach the platform (escape latency) was recorded, and then the rat was allowed to stay on the platform for 15 seconds. […] The experimental group setting is described in Table 3. […] For practical reasons, the study was divided into two sessions (Table 4). Each session included 6 groups, and each group included 5 rats. Each session took 10 days to complete. […] On day 6, each rat was placed in the swimming pool with no platform to locate the platform site for 60 seconds. […] Any Maze software was used for video tracking and data collection during the whole acquisition trial and probe trial. In acquisition trial, escape latency was recorded. In probe trial, time spent in target and swimming speed was recorded. Data were analyzed and graphed by Graph Pad Prism 5.

[2] = system: memory dysfunction of scopolamine-treated rats; details: Morris water maze test; cited from earlier work
[3] = Day 1, session 1, 250 mg/kg po + scopolamine 0.5 mg/kg ip
[4] = Day 1, session 2, 250 mg/kg po + scopolamine 0.5 mg/kg ip
[5] = Day 2, session 1, 250 mg/kg po + scopolamine 0.5 mg/kg ip
[6] = Day 2, session 2, 250 mg/kg po + scopolamine 0.5 mg/kg ip
[7] = Day 3, session 1, 250 mg/kg po + scopolamine 0.5 mg/kg ip
[8] = Day 3, session 2, 250 mg/kg po + scopolamine 0.5 mg/kg ip
[9] = Day 4, session 1, 250 mg/kg po + scopolamine 0.5 mg/kg ip
[10] = Day 4, session 2, 250 mg/kg po + scopolamine 0.5 mg/kg ip
[11] = Day 5, session 1, 250 mg/kg po + scopolamine 0.5 mg/kg ip
[12] = Day 5, session 2, 250 mg/kg po + scopolamine 0.5 mg/kg ip
[13] = Day 6, session 1, 250 mg/kg po + scopolamine 0.5 mg/kg ip on days 1-5
[14] = Day 6, session 2, 250 mg/kg po + scopolamine 0.5 mg/kg ip on days 1-5, in s

visible behavioral abnormalities ([1]; Morris water maze study): no visible behavioral abnormalities
SMILES: C[C@@]12CC[C@@H]3[C@@](CC[C@H]4[C@@]3(C)CCC[C@@]4(C)C(=O)O)(CC1=O)C2 (single isomer, unassigned; ent-16) [Isosteviol, ent-16-ketobeyeran-19-oic acid]
effect on learning and memory deficit induced by scopolamine, probe trials (in words) ([1]; 80 mg/kg): significantly attenuated
effect on learning and memory deficit induced by scopolamine, probe trials (in words) ([1]; 250 mg/kg): not
Latency to escape in acquisition trial ([1]; Day 1, session 1, 80 mg/kg po + scopolamine 0.5 mg/kg ip): 46.46 ± 4.50 s
Latency to escape in acquisition trial [1, 3]: 46.16 ± 2.48 s
Latency to escape in acquisition trial ([1]; Day 1, session 2, 80 mg/kg po + scopolamine 0.5 mg/kg ip): 45.20 ± 6.40 s
Latency to escape in acquisition trial [1, 4]: 48.46 ± 4.49 s
average time to locate the submerged platform ([1]; 80 mg/kg po + scopolamine): 45.83 ± 3.70 s
average time to locate the submerged platform ([1]; 250 mg/kg po + scopolamine): 47.31 ± 2.45 s
Latency to escape in acquisition trial ([1]; Day 2, session 1, 80 mg/kg po + scopolamine 0.5 mg/kg ip): 45.24 ± 7.87 s
Latency to escape in acquisition trial [1, 5]: 43.94 ± 5.18 s
Latency to escape in acquisition trial ([1]; Day 2, session 2, 80 mg/kg po + scopolamine 0.5 mg/kg ip): 41.88 ± 3.19 s
Latency to escape in acquisition trial [1, 6]: 50.76 ± 3.90 s
Latency to escape in acquisition trial ([1]; Day 3, session 1, 80 mg/kg po + scopolamine 0.5 mg/kg ip): 40.42 ± 5.48 s
Latency to escape in acquisition trial [1, 7]: 48.62 ± 5.64 s
Latency to escape in acquisition trial ([1]; Day 3, session 2, 80 mg/kg po + scopolamine 0.5 mg/kg ip): 36.04 ± 5.50 s
Latency to escape in acquisition trial [1, 8]: 40.42 ± 4.57 s
Latency to escape in acquisition trial ([1]; Day 4, session 1, 80 mg/kg po + scopolamine 0.5 mg/kg ip): 37.84 ± 4.36 s
Latency to escape in acquisition trial [1, 9]: 44.36 ± 6.54 s
Latency to escape in acquisition trial ([1]; Day 4, session 2, 80 mg/kg po + scopolamine 0.5 mg/kg ip): 38.74 ± 5.25 s
Latency to escape in acquisition trial [1, 10]: 41.58 ± 6.33 s
Latency to escape in acquisition trial ([1]; Day 5, session 1, 80 mg/kg po + scopolamine 0.5 mg/kg ip): 27.14 ± 4.30 s
Latency to escape in acquisition trial [1, 11]: 41.44 ± 7.24 s
Latency to escape in acquisition trial ([1]; Day 5, session 2, 80 mg/kg po + scopolamine 0.5 mg/kg ip): 33.38 ± 6.04 s
Latency to escape in acquisition trial [1, 12]: 35.24 ± 7.74 s
Time spent in target quadrant in probe trial ([1]; Day 6, session 1, 80 mg/kg po + scopolamine 0.5 mg/kg ip on days 1-5): 19.80 ± 1.19 s
Time spent in target quadrant in probe trial [1, 13]: 16.00 ± 2.37 s
Time spent in target quadrant in probe trial ([1]; Day 6, session 2, 80 mg/kg po + scopolamine 0.5 mg/kg ip on days 1-5, in s): 17.28 ± 1.11
Time spent in target quadrant in probe trial [1, 14]: 16.50 ± 1.61

SMILES: COc1cc2c(cc1OC)C(=O)C(CC1CCN(Cc3ccccc3)CC1)C2 (stereo not drawn) [Donepezil, Donepezil hydrochloride]
effect on learning and memory deficit induced by scopolamine, probe trials (in words) ([1]; 0.1 mg/kg, vs scopolamine only group): significantly attenuated
Latency to escape in acquisition trial ([1]; Day 1, session 1, 0.1 mg/kg ip + scopolamine 0.5 mg/kg ip): 48.52 ± 5.50 s
Latency to escape in acquisition trial ([1]; Day 1, session 2, 0.1 mg/kg ip + scopolamine 0.5 mg/kg ip): 45.44 ± 5.40 s
average time to locate the submerged platform ([1]; 0.1 mg/kg ip + scopolamine): 46.98 ± 3.67 s
Latency to escape in acquisition trial ([1]; Day 2, session 1, 0.1 mg/kg ip + scopolamine 0.5 mg/kg ip): 44.50 ± 2.48 s
Latency to escape in acquisition trial ([1]; Day 2, session 2, 0.1 mg/kg ip + scopolamine 0.5 mg/kg ip): 43.18 ± 7.85 s
Latency to escape in acquisition trial ([1]; Day 3, session 1, 0.1 mg/kg ip + scopolamine 0.5 mg/kg ip): 35.92 ± 8.22 s
Latency to escape in acquisition trial ([1]; Day 3, session 2, 0.1 mg/kg ip + scopolamine 0.5 mg/kg ip): 37.06 ± 4.26 s
Latency to escape in acquisition trial ([1]; Day 4, session 1, 0.1 mg/kg ip + scopolamine 0.5 mg/kg ip): 36.04 ± 4.78 s
Latency to escape in acquisition trial ([1]; Day 4, session 2, 0.1 mg/kg ip + scopolamine 0.5 mg/kg ip): 34.20 ± 6.89 s
Latency to escape in acquisition trial ([1]; Day 5, session 1, 0.1 mg/kg ip + scopolamine 0.5 mg/kg ip): 26.86 ± 3.09 s
Latency to escape in acquisition trial ([1]; Day 5, session 2, 0.1 mg/kg ip + scopolamine 0.5 mg/kg ip): 30.50 ± 5.78 s
Time spent in target quadrant in probe trial ([1]; Day 6, session 1, 0.1 mg/kg ip + scopolamine 0.5 mg/kg ip on days 1-5): 18.84 ± 3.22 s
Time spent in target quadrant in probe trial ([1]; Day 6, session 2, 0.1 mg/kg ip + scopolamine 0.5 mg/kg ip on days 1-5, in s): 19.40 ± 1.09

SMILES: CN1[C@@H]2C[C@@H](OC(=O)[C@H](CO)c3ccccc3)C[C@H]1[C@@H]1O[C@@H]12 [Scopolamine]
average time to locate the submerged platform ([1]; scopolamine 0.5 mg/kg ip alone): 46.11 ± 2.98 s
latency to the submerged platform in acquisition trials (effect in words) ([1]; Day 5, scopolamine 0.5 mg/kg): significantly increased
Time spent in target quadrant in probe trial ([1]; Day 6, session 1, scopolamine 0.5 mg/kg ip alone (0.5% MC po) on days 1-5): 15.70 ± 1.42 s
Time spent in target quadrant in probe trial ([1]; Day 6, session 2, scopolamine 0.5 mg/kg ip alone (0.5% MC po) on days 1-5, in s): 12.30 ± 1.24
time to locate in target quadrant in probe trials (effect in words) ([1]; scopolamine 0.5 mg/kg): reduced

SMILES: C=C1C[C@@]23CC[C@H]4[C@@](C)(CCC[C@@]4(C)C(=O)O[C@@H]4O[C@H](CO)[C@@H](O)[C@H](O)[C@H]4O)[C@@H]2CC[C@]1(O[C@@H]1O[C@H](CO)[C@@H](O)[C@H](O)[C@H]1O[C@@H]1O[C@H](CO)[C@@H](O)[C@H](O)[C@H]1O)C3 [Stevioside]
effect on learning and memory deficit induced by scopolamine, probe trials (in words) ([1]; 250 mg/kg): significantly reversed
Latency to escape in acquisition trial [1, 3]: 44.98 ± 5.53 s
Latency to escape in acquisition trial [1, 4]: 46.48 ± 3.66 s
average time to locate the submerged platform ([1]; 250 mg/kg po + scopolamine): 45.73 ± 3.14 s
Latency to escape in acquisition trial [1, 5]: 45.78 ± 6.95 s
Latency to escape in acquisition trial [1, 6]: 40.44 ± 3.63 s
Latency to escape in acquisition trial [1, 7]: 44.80 ± 5.46 s
Latency to escape in acquisition trial [1, 8]: 39.46 ± 9.62 s
Latency to escape in acquisition trial [1, 9]: 41.74 ± 6.39 s
Latency to escape in acquisition trial [1, 10]: 35.78 ± 4.95 s
Latency to escape in acquisition trial [1, 11]: 30.86 ± 6.57 s
Latency to escape in acquisition trial [1, 12]: 31.08 ± 3.33 s
Time spent in target quadrant in probe trial [1, 13]: 20.78 ± 3.75 s
Time spent in target quadrant in probe trial [1, 14]: 21.10 ± 2.16
effect in cognitive deficits of rats (in words) [2]: memory-preservative effect
